Here are results for 4 compounds from patent publication US20240041038A1 (priority 2020, published 2024).

In series [1] the test system is lesser mealworm (Alphitobius diaperinus). Put plainly: whole plant or invertebrate. As to conditions: 96 h, read-out: mortality rate.
Series [2] relates to corn earworm (Helicoverpa zea). To be noted: in vivo.
Series [3] concerns beet armyworm (Spodoptera exigua). As to conditions: in vivo.
Series [4] deals with corn earworm (Helicoverpa zea). To be noted: in vivo. The source holds these as a separate data set.

Bridges are numbered along the chain shown (N, C = ends). Where no end group is shown, it is not given here.

For `OB(O)O` [boric acid], the mortality – broadly, the share of the test organisms that died – at 2500 µg/mL in series [1] worked out at 10.3%. `C/C=C(\C)C(=O)O[C@H]1C[C@@H](OC(C)=O)[C@@]2(C(=O)OC)CO[C@H]3[C@@H](O)[C@@](C)([C@]45O[C@@]4(C)[C@H]4C[C@@H]5O[C@@H]5OC=C[C@@]54O)[C@H]4[C@]1(CO[C@]4(O)C(=O)OC)[C@@H]32` [Azadirachtin]: the mortality in series [2] was 37.5%.

In series [3], “GSCADINGACKSDCDCCGDSVTCDCYWSDSCKCRESNFKIGMAIRKKFC (disulfide 3-17, 10-23, 14-49, 16-33, 25-31) [Γ-CNTX-Pn1a]” gave a mortality of 6% and a mortality rate of 3%. For `O=C(NC(=O)c1c(F)cccc1F)Nc1ccc(OC(F)(F)C(F)OC(F)(F)F)c(Cl)c1` (centres unmarked) [Novaluron], the “greater than additive insecticidal effect when combined with U+2-ACTX-Hv1a” value in series [4] is “Novaluron*”.
